# Assay results as given in article PMC7982320 (Pharmacology Research & Perspectives, 2021).
# Tests used:
# [1] = biological target: CYP2C19 (Homo sapiens, UniProt P33261); assay: CYP inhibition in pooled human liver microsomes, S-mephenytoin probe; type: in vitro ADME
# [2] = biological target: CYP2B6 (Homo sapiens, UniProt P20813); type: in vitro ADME; conditions: read-out: IC50, No preincubation; CYP2B6, pooled HLMs, n = 3
# [3] = biological target: CYP2D6 (Homo sapiens, UniProt P10635); assay: CYP inhibition in pooled human liver microsomes, dextromethorphan probe; type: in vitro ADME; conditions: read-out: IC50, No preincubation; CYP2D6, pooled HLMs, n = 3
# [4] = biological target: CYP1A2 (Homo sapiens, UniProt P05177); type: in vitro ADME; conditions: read-out: IC50, No preincubation; CYP1A2, pooled HLMs, n = 3
# [5] = biological target: human BSEP (Homo sapiens, UniProt O95342); assay: Transporter inhibition, vesicular transport assay; type: in vitro ADME
# [6] = biological target: T1, human OATP1B1 (Homo sapiens, UniProt Q9Y6L6); assay: Transporter inhibition, uptake assay; type: in vitro ADME
# T1 sequence (Q9Y6L6 1-691): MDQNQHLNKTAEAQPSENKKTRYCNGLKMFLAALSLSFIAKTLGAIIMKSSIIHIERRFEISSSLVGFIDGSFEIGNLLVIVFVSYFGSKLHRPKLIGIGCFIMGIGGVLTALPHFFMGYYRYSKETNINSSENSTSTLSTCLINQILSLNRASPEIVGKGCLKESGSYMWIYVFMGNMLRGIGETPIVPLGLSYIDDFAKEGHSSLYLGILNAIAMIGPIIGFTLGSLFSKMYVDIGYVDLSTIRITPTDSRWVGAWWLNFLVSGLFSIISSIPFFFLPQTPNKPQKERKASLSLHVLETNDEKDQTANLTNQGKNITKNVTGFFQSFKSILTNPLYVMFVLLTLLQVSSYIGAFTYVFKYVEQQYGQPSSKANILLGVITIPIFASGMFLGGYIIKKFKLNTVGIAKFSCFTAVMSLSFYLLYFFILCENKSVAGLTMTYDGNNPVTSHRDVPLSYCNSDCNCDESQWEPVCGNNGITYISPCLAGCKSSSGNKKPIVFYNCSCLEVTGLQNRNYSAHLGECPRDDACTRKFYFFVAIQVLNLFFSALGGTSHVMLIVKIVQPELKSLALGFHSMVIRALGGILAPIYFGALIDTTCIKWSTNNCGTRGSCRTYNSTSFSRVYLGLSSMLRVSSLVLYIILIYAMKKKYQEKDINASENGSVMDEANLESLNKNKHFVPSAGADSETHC
# [7] = combined DMD patient populations, DFZ 0.9 mg/kg/day; ref PTC internal data; cited from earlier work
# [8] = test system: CYP1A2; assay: in vitro; type: in vitro ADME, human; conditions: 48 h
# [9] = biological target: T2, human OATP1B3 (Homo sapiens, UniProt Q9NPD5); assay: Transporter inhibition, uptake assay; type: in vitro ADME
# T2 sequence (Q9NPD5 1-702): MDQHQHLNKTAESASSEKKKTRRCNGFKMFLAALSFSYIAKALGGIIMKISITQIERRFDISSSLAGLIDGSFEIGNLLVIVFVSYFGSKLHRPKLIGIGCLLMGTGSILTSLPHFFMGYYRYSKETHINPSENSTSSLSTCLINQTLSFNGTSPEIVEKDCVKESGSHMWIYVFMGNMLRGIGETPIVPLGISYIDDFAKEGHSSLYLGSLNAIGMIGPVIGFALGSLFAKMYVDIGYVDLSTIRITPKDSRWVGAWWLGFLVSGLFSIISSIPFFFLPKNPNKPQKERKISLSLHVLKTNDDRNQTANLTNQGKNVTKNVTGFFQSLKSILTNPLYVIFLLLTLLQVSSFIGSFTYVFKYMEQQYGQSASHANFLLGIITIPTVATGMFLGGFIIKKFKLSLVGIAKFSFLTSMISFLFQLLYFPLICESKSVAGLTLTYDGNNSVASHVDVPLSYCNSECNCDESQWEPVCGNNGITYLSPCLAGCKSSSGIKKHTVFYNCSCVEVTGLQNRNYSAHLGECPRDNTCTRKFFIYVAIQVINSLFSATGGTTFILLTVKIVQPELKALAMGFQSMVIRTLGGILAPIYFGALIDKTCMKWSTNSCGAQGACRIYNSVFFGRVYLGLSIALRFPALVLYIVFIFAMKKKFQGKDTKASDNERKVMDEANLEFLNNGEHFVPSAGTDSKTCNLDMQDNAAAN
# [10] = biological target: CYP2C9 (Homo sapiens, UniProt P11712); assay: CYP inhibition in pooled human liver microsomes, diclofenac probe; type: in vitro ADME; conditions: read-out: IC50, No preincubation; CYP2C9, pooled HLMs, n = 3
# Chain of CYP2C9 (P11712 whole entry): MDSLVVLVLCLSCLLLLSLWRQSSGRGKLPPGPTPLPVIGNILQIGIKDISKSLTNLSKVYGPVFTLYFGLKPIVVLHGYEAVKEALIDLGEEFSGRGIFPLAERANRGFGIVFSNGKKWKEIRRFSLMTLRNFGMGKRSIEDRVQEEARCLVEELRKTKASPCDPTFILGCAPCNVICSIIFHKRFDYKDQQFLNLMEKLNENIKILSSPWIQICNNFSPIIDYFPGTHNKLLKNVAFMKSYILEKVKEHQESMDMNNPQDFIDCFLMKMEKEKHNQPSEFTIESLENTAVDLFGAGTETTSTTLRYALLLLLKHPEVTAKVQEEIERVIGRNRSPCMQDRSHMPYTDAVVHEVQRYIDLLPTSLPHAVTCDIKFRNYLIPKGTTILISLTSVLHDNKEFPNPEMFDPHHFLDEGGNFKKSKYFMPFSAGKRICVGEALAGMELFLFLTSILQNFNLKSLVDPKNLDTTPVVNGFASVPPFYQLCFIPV
# Chain of CYP2C19 (P33261 whole entry): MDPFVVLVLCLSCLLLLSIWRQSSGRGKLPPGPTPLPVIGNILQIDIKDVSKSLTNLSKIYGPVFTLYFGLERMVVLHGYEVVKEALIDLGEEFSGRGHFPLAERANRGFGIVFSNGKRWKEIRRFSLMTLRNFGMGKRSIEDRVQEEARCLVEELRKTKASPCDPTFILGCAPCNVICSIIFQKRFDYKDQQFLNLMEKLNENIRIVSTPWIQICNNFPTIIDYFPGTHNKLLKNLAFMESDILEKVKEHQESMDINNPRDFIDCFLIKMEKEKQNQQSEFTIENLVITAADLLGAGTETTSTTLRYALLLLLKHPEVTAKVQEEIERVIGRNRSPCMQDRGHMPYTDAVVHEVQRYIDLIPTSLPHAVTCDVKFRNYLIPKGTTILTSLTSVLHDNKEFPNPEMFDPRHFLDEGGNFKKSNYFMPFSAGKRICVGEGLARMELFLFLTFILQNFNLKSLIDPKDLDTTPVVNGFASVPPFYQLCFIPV
# Chain of human BSEP (O95342 whole entry): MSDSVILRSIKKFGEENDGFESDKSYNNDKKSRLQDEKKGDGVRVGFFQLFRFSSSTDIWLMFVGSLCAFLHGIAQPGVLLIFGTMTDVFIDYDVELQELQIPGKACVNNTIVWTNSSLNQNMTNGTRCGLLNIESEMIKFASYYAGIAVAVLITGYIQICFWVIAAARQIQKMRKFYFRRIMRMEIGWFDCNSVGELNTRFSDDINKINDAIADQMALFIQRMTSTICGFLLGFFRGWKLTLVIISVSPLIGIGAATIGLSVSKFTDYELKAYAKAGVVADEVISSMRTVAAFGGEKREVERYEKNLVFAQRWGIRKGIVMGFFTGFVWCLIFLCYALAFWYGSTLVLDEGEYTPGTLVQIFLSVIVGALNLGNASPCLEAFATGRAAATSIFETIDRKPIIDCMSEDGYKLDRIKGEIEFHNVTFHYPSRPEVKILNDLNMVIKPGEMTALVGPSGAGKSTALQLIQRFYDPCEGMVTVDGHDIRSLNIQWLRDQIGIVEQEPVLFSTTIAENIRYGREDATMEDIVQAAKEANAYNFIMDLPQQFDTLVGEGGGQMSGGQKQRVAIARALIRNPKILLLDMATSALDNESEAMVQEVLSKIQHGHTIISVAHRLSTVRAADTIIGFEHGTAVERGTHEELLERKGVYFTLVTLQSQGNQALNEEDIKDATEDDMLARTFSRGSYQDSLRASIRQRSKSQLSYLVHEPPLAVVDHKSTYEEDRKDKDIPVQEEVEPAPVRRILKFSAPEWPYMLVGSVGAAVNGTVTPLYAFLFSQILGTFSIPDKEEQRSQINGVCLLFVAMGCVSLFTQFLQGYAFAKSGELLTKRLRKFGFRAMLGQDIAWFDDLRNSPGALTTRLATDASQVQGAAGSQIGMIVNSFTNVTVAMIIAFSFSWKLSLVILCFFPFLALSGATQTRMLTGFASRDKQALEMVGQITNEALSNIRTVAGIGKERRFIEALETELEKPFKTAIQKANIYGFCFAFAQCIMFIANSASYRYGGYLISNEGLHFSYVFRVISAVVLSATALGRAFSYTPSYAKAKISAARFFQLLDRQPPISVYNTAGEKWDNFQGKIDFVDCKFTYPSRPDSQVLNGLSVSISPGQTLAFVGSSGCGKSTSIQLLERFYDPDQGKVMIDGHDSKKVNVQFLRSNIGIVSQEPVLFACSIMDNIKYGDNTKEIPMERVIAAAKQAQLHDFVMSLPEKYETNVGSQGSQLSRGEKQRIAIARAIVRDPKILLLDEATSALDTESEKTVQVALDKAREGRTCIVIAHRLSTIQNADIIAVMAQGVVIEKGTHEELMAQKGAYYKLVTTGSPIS
# Chain of CYP2B6 (P20813 whole entry): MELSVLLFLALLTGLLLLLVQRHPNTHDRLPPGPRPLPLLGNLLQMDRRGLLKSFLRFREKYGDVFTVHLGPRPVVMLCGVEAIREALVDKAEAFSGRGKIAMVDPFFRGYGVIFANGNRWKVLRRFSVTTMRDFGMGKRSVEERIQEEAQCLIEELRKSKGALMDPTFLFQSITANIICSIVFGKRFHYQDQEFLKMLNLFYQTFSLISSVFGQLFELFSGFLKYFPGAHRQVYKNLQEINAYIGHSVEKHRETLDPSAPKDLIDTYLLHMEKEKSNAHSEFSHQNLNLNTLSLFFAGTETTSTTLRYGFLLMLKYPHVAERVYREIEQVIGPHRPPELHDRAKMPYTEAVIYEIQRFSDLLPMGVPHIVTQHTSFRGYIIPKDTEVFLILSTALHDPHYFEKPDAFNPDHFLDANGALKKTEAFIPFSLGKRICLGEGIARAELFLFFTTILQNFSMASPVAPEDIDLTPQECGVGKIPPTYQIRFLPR
# Chain of CYP1A2 (Homo sapiens, UniProt P05177) (P05177 whole entry): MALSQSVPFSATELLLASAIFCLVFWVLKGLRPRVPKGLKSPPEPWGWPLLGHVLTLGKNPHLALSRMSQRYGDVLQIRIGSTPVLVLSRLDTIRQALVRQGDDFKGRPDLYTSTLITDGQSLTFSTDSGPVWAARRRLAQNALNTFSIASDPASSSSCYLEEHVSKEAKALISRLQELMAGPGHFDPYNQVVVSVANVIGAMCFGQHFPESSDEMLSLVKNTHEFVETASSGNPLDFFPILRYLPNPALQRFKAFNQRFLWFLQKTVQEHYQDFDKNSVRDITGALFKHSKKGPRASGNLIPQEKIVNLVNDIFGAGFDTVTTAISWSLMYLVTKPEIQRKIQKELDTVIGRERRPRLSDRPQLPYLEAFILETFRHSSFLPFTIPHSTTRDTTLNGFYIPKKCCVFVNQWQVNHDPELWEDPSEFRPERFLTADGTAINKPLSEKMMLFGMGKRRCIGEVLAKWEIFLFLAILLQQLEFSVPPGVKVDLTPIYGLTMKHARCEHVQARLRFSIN
# Chain of CYP2D6 (P10635 whole entry): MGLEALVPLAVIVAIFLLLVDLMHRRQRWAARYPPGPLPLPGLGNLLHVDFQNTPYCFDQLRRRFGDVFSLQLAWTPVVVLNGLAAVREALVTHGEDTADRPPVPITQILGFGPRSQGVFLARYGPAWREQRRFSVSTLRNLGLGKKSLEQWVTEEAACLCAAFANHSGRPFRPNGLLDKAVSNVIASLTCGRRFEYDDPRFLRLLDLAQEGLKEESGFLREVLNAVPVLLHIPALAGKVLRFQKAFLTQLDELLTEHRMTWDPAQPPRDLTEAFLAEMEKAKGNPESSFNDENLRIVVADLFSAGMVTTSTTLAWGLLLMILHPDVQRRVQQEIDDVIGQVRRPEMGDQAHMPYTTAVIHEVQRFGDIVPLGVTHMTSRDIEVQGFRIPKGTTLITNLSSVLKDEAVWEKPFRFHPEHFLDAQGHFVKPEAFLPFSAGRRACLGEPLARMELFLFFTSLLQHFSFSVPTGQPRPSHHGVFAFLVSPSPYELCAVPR
smiles,measurement,setting,value
"CC1=N[C@]2(C(=O)CO)[C@@H](C[C@H]3[C@@H]4C[C@@H](O)C5=CC(=O)C=C[C@]5(C)[C@H]4[C@@H](O)C[C@@]32C)O1 [6β‐OH‐21‐desDFZ, 6β‐Hydroxy‐21‐desacetyl deflazacort]",estimated plasma Cmax/IC50 ratio,"[1]; CYP2C19, Cmax 0.34 µM, assumed 100% free",0.007
same,IC50,"[1]; read-out: IC50, No preincubation, CYP2C19, pooled HLMs, n = 3",~50 µM
same,IC50,[2],> 50 µM
same,IC50,[3],> 50 µM
same,IC50,[4],> 50 µM
same,Maximum inhibition at 50 µM,"[5]; BSEP VT, n = 3",27 % of control
same,inhibitory interaction with transporter,"[5]; BSEP, up to 50 µM",no inhibitory interaction
same,estimated plasma Cmax/IC50 ratio,"[6]; OATP1B1, Cmax 0.34 µM, assumed 100% free",0.009
same,Maximum inhibition at 50 µM,"[6]; OATP1B1 UPT, n = 3",67 % of control
same,IC50,"[6]; OATP1B1 UPT, brackets: 95% confidence interval",36.7 µM
same,"plasma Cmax at steady state, mean value",[7],142 ng/mL
same,CYP1A2 enzyme activity fold induction,"[8]; donor one, 0.002 µM",0.783 fold
same,CYP1A2 mRNA fold induction,"[8]; donor one, 0.002 µM",0.657 fold
same,CYP1A2 enzyme activity fold induction,"[8]; donor one, 0.01 µM",0.671 fold
same,CYP1A2 mRNA fold induction,"[8]; donor one, 0.01 µM",0.735 fold
same,CYP1A2 enzyme activity fold induction,"[8]; donor one, 0.05 µM",0.649 fold
same,CYP1A2 mRNA fold induction,"[8]; donor one, 0.05 µM",0.735 fold
same,CYP1A2 enzyme activity fold induction,"[8]; donor one, 0.25 µM",0.753 fold
same,CYP1A2 mRNA fold induction,"[8]; donor one, 0.25 µM",0.667 fold
same,CYP1A2 enzyme activity fold induction,"[8]; donor one, 5 µM",0.770 fold
same,CYP1A2 mRNA fold induction,"[8]; donor one, 5 µM",0.628 fold
same,CYP1A2 enzyme activity fold induction,"[8]; donor one, 10 µM",0.772 fold
same,CYP1A2 mRNA fold induction,"[8]; donor one, 10 µM",0.619 fold
same,CYP1A2 enzyme activity fold induction,"[8]; donor one, 20 µM",0.699 fold
same,CYP1A2 mRNA fold induction,"[8]; donor one, 20 µM",0.741 fold
same,CYP1A2 enzyme activity fold induction,"[8]; donor three, 0.002 µM",1.01 fold
same,CYP1A2 mRNA fold induction,"[8]; donor three, 0.002 µM",0.665 fold
same,CYP1A2 enzyme activity fold induction,"[8]; donor three, 0.01 µM",0.892 fold
same,CYP1A2 mRNA fold induction,"[8]; donor three, 0.01 µM",0.744 fold
same,CYP1A2 enzyme activity fold induction,"[8]; donor three, 0.05 µM",0.812 fold
same,CYP1A2 mRNA fold induction,"[8]; donor three, 0.05 µM",0.701 fold
same,CYP1A2 enzyme activity fold induction,"[8]; donor three, 0.25 µM",0.747 fold
same,CYP1A2 mRNA fold induction,"[8]; donor three, 0.25 µM",0.610 fold
same,CYP1A2 enzyme activity fold induction,"[8]; donor three, 5 µM",0.870 fold
same,CYP1A2 mRNA fold induction,"[8]; donor three, 5 µM",0.635 fold
same,CYP1A2 enzyme activity fold induction,"[8]; donor three, 10 µM",0.954 fold
same,CYP1A2 mRNA fold induction,"[8]; donor three, 10 µM",0.647 fold
same,CYP1A2 enzyme activity fold induction,"[8]; donor three, 20 µM",0.955 fold
same,CYP1A2 mRNA fold induction,"[8]; donor three, 20 µM",0.723 fold
same,CYP1A2 enzyme activity fold induction,"[8]; donor two, 0.002 µM",0.913 fold
same,CYP1A2 mRNA fold induction,"[8]; donor two, 0.002 µM",0.978 fold
same,CYP1A2 enzyme activity fold induction,"[8]; donor two, 0.01 µM",0.880 fold
same,CYP1A2 mRNA fold induction,"[8]; donor two, 0.01 µM",0.871 fold
same,CYP1A2 enzyme activity fold induction,"[8]; donor two, 0.05 µM",0.838 fold
same,CYP1A2 mRNA fold induction,"[8]; donor two, 0.05 µM",0.928 fold
same,CYP1A2 enzyme activity fold induction,"[8]; donor two, 0.25 µM",0.832 fold
same,CYP1A2 mRNA fold induction,"[8]; donor two, 0.25 µM",0.979 fold
same,CYP1A2 enzyme activity fold induction,"[8]; donor two, 5 µM",1.18 fold
same,CYP1A2 mRNA fold induction,"[8]; donor two, 5 µM",0.786 fold
same,CYP1A2 enzyme activity fold induction,"[8]; donor two, 10 µM",1.07 fold
same,CYP1A2 mRNA fold induction,"[8]; donor two, 10 µM",0.840 fold
same,CYP1A2 enzyme activity fold induction,"[8]; donor two, 20 µM",1.18 fold
same,CYP1A2 mRNA fold induction,"[8]; donor two, 20 µM",0.886 fold
same,estimated plasma Cmax/IC50 ratio,"[9]; OATP1B3, Cmax 0.34 µM, assumed 100% free",0.008
same,Maximum inhibition at 50 µM,"[9]; OATP1B3 UPT, n = 3",57 % of control
same,IC50,"[9]; OATP1B3 UPT, brackets: 95% confidence interval",42.2 µM
same,IC50,[10],> 50 µM
